Source: ChEMBL document CHEMBL4673247, “Mycophenolic anilides as broad specificity inosine-5'-monophosphate dehydrogenase (IMPDH) inhibitors” (Bioorg Med Chem Lett, 2020)

How the values were obtained:
[1] = target: T1, Inosine-5'-monophosphate dehydrogenase (Cryptosporidium parvum, UniProt Q8T6T2); experiment: Inhibition of Cryptosporidium parvum IMPDH expressed in Escherichia coli assessed as apparent inhibition constant using NAD as substrate by fluorescence assay; settings: read-out: Ki(app)
T1 sequence (Q8T6T2 whole entry): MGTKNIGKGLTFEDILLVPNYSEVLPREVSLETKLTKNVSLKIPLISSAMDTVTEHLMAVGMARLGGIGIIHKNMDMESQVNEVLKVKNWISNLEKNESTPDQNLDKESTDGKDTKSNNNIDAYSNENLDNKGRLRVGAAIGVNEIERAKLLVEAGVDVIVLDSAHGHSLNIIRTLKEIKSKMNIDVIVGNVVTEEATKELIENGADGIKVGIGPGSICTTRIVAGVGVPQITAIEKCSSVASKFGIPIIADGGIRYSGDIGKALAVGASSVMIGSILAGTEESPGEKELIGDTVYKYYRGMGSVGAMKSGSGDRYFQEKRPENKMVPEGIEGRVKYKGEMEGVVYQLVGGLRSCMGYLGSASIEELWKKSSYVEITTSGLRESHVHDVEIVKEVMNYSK

[2] = target: Inosine-5'-monophosphate dehydrogenase 2 (Homo sapiens, UniProt P12268); experiment: Inhibition of human IMPDH2 expressed in Escherichia coli assessed as apparent inhibition constant using NAD as substrate by fluorescence assay; settings: read-out: Ki(app)

| Structure (SMILES) | Ki [1] | Ki [2] |
| --- | --- | --- |
| COc1c(C)c2c(c(O)c1CCC(C)CCC(=O)Nc1ccc(Cl)c(C(F)(F)F)c1)C(=O)OC2 (stereo not given) | 60 nM |  |
| COc1c(C)c2c(c(O)c1C/C=C(\C)CCC(=O)N(C)c1ccc(Cl)cc1)C(=O)OC2 | 870 nM |  |
| COc1c(C)c2c(c(O)c1C/C=C(\C)CCC(=O)Nc1ccc(C#N)cc1)C(=O)OC2 | 110 nM | 350 nM |
| COc1c(C)c2c(c(O)c1C/C=C(\C)CCC(=O)Nc1ccc(C(F)(F)F)cc1)C(=O)OC2 |  | 400 nM |

More lines, now with the values ahead:

| Ki [1] | Ki [2] | Structure (SMILES) |
| --- | --- | --- |
| 42 nM | 130 nM | COc1c(C)c2c(c(O)c1C/C=C(\C)CCC(=O)Nc1ccc(Cl)cc1)C(=O)OC2 |
| 16 nM | 230 nM | COc1c(C)c2c(c(O)c1C/C=C(\C)CCC(=O)Nc1ccc(Cl)c(C(F)(F)F)c1)C(=O)OC2 |
| 41 nM | 340 nM | COc1c(C)c2c(c(O)c1C/C=C(\C)CCC(=O)Nc1ccc(Cl)c(Cl)c1)C(=O)OC2 |
| 46 nM | 350 nM | COc1cc(NC(=O)CC/C(C)=C/Cc2c(O)c3c(c(C)c2OC)COC3=O)ccc1Cl |
|  | 270 nM | COc1c(C)c2c(c(O)c1C/C=C(\C)CCC(=O)Nc1ccc(F)cc1)C(=O)OC2 |
| 1700 nM |  | COc1c(C)c2c(c(OC)c1C/C=C(\C)CCC(=O)Nc1ccc(Cl)c(C(F)(F)F)c1)C(=O)OC2 |
